Measurements from US10758549B2, “Compositions of obeticholic acid and methods of use” (Intercept Pharmaceuticals, Inc., priority 2015, dated 2020).
Where “and” joins values, the source holds several entries; their conditions need not be identical. Identical values can stand only once. One block for each compound: values may come before it.

Experiments:
[1] = biological target: T1, farnesoid X receptor (FXR) (Homo sapiens, UniProt Q96RI1); conditions: in vitro / on FXR; cited from earlier work
T1 sequence (Q96RI1 1-486): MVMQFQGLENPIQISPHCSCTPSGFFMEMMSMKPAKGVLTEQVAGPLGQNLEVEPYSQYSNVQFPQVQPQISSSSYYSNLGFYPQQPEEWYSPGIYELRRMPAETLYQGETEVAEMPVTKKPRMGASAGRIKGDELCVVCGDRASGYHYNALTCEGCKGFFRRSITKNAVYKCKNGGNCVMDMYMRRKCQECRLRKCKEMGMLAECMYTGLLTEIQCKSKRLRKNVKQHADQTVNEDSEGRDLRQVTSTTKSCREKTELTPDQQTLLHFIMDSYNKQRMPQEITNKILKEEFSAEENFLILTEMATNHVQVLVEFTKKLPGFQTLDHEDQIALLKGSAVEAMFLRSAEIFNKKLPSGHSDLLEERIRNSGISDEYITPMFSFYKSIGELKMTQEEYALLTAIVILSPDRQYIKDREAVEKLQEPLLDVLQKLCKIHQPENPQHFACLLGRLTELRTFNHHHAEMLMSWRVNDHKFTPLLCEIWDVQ

[2] = Particle size distribution, dry dispersion laser diffraction (Sympatec); format: physicochemical; conditions: for D10 / D50 / D75 / D90 / D95 / D25: in µm (unit assumed); for PSD X10 / PSD X50 / PSD X90: spiral jet mill, JetPharma
Description: Particle size of agglomeration was identified as playing a primary role in the release rate and dissolution and variability in the blend uniformity and content uniformity of the tablet formulations. In order to obtain an appropriate particle size distribution (PSD), milling of obeticholic acid was investigated. The particle size of the formulations was reduced using comilling and jet milling to improve its dissolution release profile. Particle size analysis was performed using a dry dispersion method and analyzed by laser diffraction using Sympatec equipment.
Particle size distribution was assessed using a dry dispersion method analyzed by laser diffraction using a Sympatec Laser Helos/KF-Magic F71000 with Rodos Dispersing Unit. The OCA sample (0.5 g sample) was tested as a dry powder. The parameters for the validated particle size analysis method are described below:
Apparatus: Sympatec Laser Helos/KF-Magic F71000 with Rodos Dispersing Unit, Vibri sampling unit with Sniffer rotation, Nilfisk exhaustion or equivalent.
Dispersing principle: Dry.

Surface area by BET = format: physicochemical
Description: The impact of jet-milling on API particle size and surface area is detailed in Table 4-1 and Table 4-2, respectively. Surface area was tested per a BET (Brunauer, Emmett, and Teller theory). The BET method for analyzing surface area is based on adsorption of gas on a surface. The amount of gas adsorbed at a given pressure allows a determination of the surface area.

[3] = Before jet-milling (unmicronized)

SMILES: CCC1C(O)C2C3CCC(C(C)CCC(=O)O)C3(C)CCC2C2(C)CCC(OC3OC(C(=O)O)C(O)C(O)C3O)CC12 (stereo not drawn) [3-glucuronide]
pharmacological activity relative to OCA (parent drug) [1]: minimal pharmacologic activity

SMILES: CC[C@H]1[C@@H](O)[C@@H]2[C@H](CC[C@]3(C)[C@@H]([C@H](C)CCC(=O)O)CC[C@@H]23)[C@@]2(C)CC[C@@H](O)C[C@@H]12 [Unmilled API (no comil)]
D10 [2]: 4.8 and 3.3
D50 [2]: 218.6 and 167.7
D75 [2]: 335.7 and 273.7
D90 [2]: 427.6 and 355.6
D95 [2]: 472.6 and 398.2
D10 ([2]; listed as Unmilled API): 4.8
D50 ([2]; listed as Unmilled API): 218.6
D90 ([2]; listed as Unmilled API): 427.6

SMILES: CC[C@H]1[C@@H](O)[C@@H]2[C@H](CC[C@]3(C)[C@@H]([C@H](C)CCC(=O)O)CC[C@@H]23)[C@@]2(C)CC[C@@H](O)C[C@@H]12 [Jet mill, classifier speed 2000 rpm]
D16 [2]: 2.3 µm
D84 [2]: 57.2 µm
D99 [2]: 97.9 µm
D10 [2]: 1.7
D50 [2]: 10.9
D90 [2]: 69.3

SMILES: CC[C@H]1[C@@H](O)[C@@H]2[C@H](CC[C@]3(C)[C@@H]([C@H](C)CCC(=O)O)CC[C@@H]23)[C@@]2(C)CC[C@@H](O)C[C@@H]12 [Jet mill, classifier speed 4000 rpm]
D16 [2]: 1.6 µm
D84 [2]: 17 µm
D99 [2]: 36 µm
D10 [2]: 1.3
D50 [2]: 3.8
D90 [2]: 21.7

SMILES: CC[C@H]1[C@@H](O)[C@@H]2[C@H](CC[C@]3(C)[C@@H]([C@H](C)CCC(=O)O)CC[C@@H]23)[C@@]2(C)CC[C@@H](O)C[C@@H]12 [Comilled with 0.46 mm screen]
D10 [2]: 5.7
D25 [2]: 122.9
D50 [2]: 217.5
D75 [2]: 283.0
D90 [2]: 335.1
D95 [2]: 360.3

SMILES: CC[C@H]1[C@@H](O)[C@@H]2[C@H](CC[C@]3(C)[C@@H]([C@H](C)CCC(=O)O)CC[C@@H]23)[C@@]2(C)CC[C@@H](O)C[C@@H]12 [Comilled with 1.14 mm screen]
D10 [2]: 7.9
D25 [2]: 73.9
D50 [2]: 239.3
D75 [2]: 340.8
D90 [2]: 412.0
D95 [2]: 452.7

SMILES: CC[C@H]1[C@@H](O)[C@@H]2[C@H](CC[C@]3(C)[C@@H]([C@H](C)CCC(=O)O)CC[C@@H]23)[C@@]2(C)CC[C@@H](O)C[C@@H]12 [Comilled with 0.61 mm screen]
D10 [2]: 5.5 and 4.1
D25 [2]: 106.6 and 102.2
D50 [2]: 223.2 and 263.1
D75 [2]: 320.8 and 351.0
D90 [2]: 393.8 and 410.9
D95 [2]: 429.8 and 447.9

SMILES: CC[C@H]1[C@@H](O)[C@@H]2[C@H](CC[C@]3(C)[C@@H]([C@H](C)CCC(=O)O)CC[C@@H]23)[C@@]2(C)CC[C@@H](O)C[C@@H]12 [OCA Example # 1]
Surface Area (m^2/kg) (Surface area by BET; After jet-milling (micronized)): 3178 m^2/kg
Surface Area (m^2/kg) (Surface area by BET; [3]): 1557 m^2/kg
Dv (10) ([2]; After jet-milling (micronized)): 0.7 µm
Dv (50) ([2]; After jet-milling (micronized)): 6.1 µm
Dv (90) ([2]; After jet-milling (micronized)): 18.8 µm
Dv (99) ([2]; After jet-milling (micronized)): 30.8 µm
Dv (10) [2, 3]: 2.6 µm
Dv (50) [2, 3]: 26 µm
Dv (90) [2, 3]: 162 µm
Dv (99) [2, 3]: 419 µm

SMILES: CC[C@H]1[C@@H](O)[C@@H]2[C@H](CC[C@]3(C)[C@@H]([C@H](C)CCC(=O)O)CC[C@@H]23)[C@@]2(C)CC[C@@H](O)C[C@@H]12 [OCA Example # 3]
Surface Area (m^2/kg) (Surface area by BET; After jet-milling (micronized)): 3412 m^2/kg
Surface Area (m^2/kg) (Surface area by BET; [3]): 809 m^2/kg
Dv (10) ([2]; After jet-milling (micronized)): 0.7 µm
Dv (50) ([2]; After jet-milling (micronized)): 4.9 µm
Dv (90) ([2]; After jet-milling (micronized)): 14.1 µm
Dv (99) ([2]; After jet-milling (micronized)): 25.9 µm
Dv (10) [2, 3]: 5.3 µm
Dv (50) [2, 3]: 39 µm
Dv (90) [2, 3]: 221 µm
Dv (99) [2, 3]: 513 µm

SMILES: CC[C@H]1[C@@H](O)[C@@H]2[C@H](CC[C@]3(C)[C@@H]([C@H](C)CCC(=O)O)CC[C@@H]23)[C@@]2(C)CC[C@@H](O)C[C@@H]12 [Jet mill, classifier speed 5000 rpm]
D16 [2]: 1.7 µm
D84 [2]: 15.2 µm
D99 [2]: 55.8 µm
D10 [2]: 1.3
D50 [2]: 4.2
D90 [2]: 18.9

SMILES: CC[C@H]1[C@@H](O)[C@@H]2[C@H](CC[C@]3(C)[C@@H]([C@H](C)CCC(=O)O)CC[C@@H]23)[C@@]2(C)CC[C@@H](O)C[C@@H]12 [OCA Example # 2]
Surface Area (m^2/kg) (Surface area by BET; After jet-milling (micronized)): 3848 m^2/kg
Surface Area (m^2/kg) (Surface area by BET; [3]): 1854 m^2/kg
Dv (10) ([2]; After jet-milling (micronized)): 0.6 µm
Dv (50) ([2]; After jet-milling (micronized)): 4.4 µm
Dv (90) ([2]; After jet-milling (micronized)): 17.8 µm
Dv (99) ([2]; After jet-milling (micronized)): 34.6 µm
Dv (10) [2, 3]: 1.8 µm
Dv (50) [2, 3]: 19 µm
Dv (90) [2, 3]: 231 µm
Dv (99) [2, 3]: 509 µm

SMILES: CC[C@H]1[C@@H](O)[C@@H]2[C@H](CC[C@]3(C)[C@@H]([C@H](C)CCC(=O)O)CC[C@@H]23)[C@@]2(C)CC[C@@H](O)C[C@@H]12 [Jet mill, classifier speed 10000 rpm]
D16 [2]: 1.4 µm
D84 [2]: 4.7 µm
D99 [2]: 9 µm
D10 [2]: 1.1
D50 [2]: 2.7
D90 [2]: 5.6

Now from value to compound:

PSD X10 [2]: X10: 1 μm
PSD X50 [2]: X50: 5 μm
PSD X90 [2]: X90: 19 μm
SMILES: CC[C@H]1[C@@H](O)[C@@H]2[C@H](CC[C@]3(C)[C@@H]([C@H](C)CCC(=O)O)CC[C@@H]23)[C@@]2(C)CC[C@@H](O)C[C@@H]12 [JP1408001]

PSD X10 [2]: X10: 1 μm
PSD X50 [2]: X50: 5 μm
PSD X90 [2]: X90: 20 μm
SMILES: CC[C@H]1[C@@H](O)[C@@H]2[C@H](CC[C@]3(C)[C@@H]([C@H](C)CCC(=O)O)CC[C@@H]23)[C@@]2(C)CC[C@@H](O)C[C@@H]12 [JP1307001]

PSD X10 [2]: X10: 1 μm
PSD X50 [2]: X50: 4 μm
PSD X90 [2]: X90: 14 μm
SMILES: CC[C@H]1[C@@H](O)[C@@H]2[C@H](CC[C@]3(C)[C@@H]([C@H](C)CCC(=O)O)CC[C@@H]23)[C@@]2(C)CC[C@@H](O)C[C@@H]12 [JP1408002]

PSD X10 [2]: X10: 1 μm
PSD X50 [2]: X50: 4 μm
PSD X90 [2]: X90: 15 μm
SMILES: CC[C@H]1[C@@H](O)[C@@H]2[C@H](CC[C@]3(C)[C@@H]([C@H](C)CCC(=O)O)CC[C@@H]23)[C@@]2(C)CC[C@@H](O)C[C@@H]12 [JP1408003]
